From ChEMBL document CHEMBL3885881, “DrugMatrix”

Species on record: Rattus norvegicus
Test: DrugMatrix - Regimen: Daily Repeat
Type: toxicity, organism-based, Sprague-Dawley
Parameters: regimen Daily Repeat, gender Male, age 6-8 weeks
Conditions: in vivo, iv, vehicle 100 % SALINE; for ABSOLUTE BASOPHIL / ABSOLUTE EOSINOPHIL / ABSOLUTE LYMPHOCYTE / ABSOLUTE MONOCYTE / ABSOLUTE SEGMENTED NEUTROPHIL / BASOPHIL / EOSINOPHIL / ERYTHROCYTE COUNT / HEMATOCRIT / HEMOGLOBIN / LEUKOCYTE COUNT / LYMPHOCYTE / MEAN CORPUSCULAR HEMOGLOBIN / MEAN CORPUSCULAR HEMOGLOBIN CONCENTRATION / MEAN CORPUSCULAR VOLUME / MONOCYTE / NEUTROPHIL / NUCLEATED RED BLOOD CELLS / PLATELET COUNT: tissue Blood; for ALANINE AMINOTRANSFERASE / ALBUMIN / ALKALINE PHOSPHATASE / ASPARTATE AMINOTRANSFERASE / BLOOD UREA NITROGEN / CARBON DIOXIDE / CHLORIDE / CHOLESTEROL / CREATINE PHOSPHOKINASE / CREATININE / GLUCOSE / LACTATE DEHYDROGENASE / LIPASE / PHOSPHORUS / POTASSIUM / SODIUM / TOTAL BILIRUBIN / TOTAL PROTEIN / URIC ACID: tissue Plasma
[1] = 0.5 mg/kg, 120 h, dose level Low, time 5 day
[2] = […], 72 h, dose 1.7 mg/Kg, dose level High, time 3 day
[3] = […], 120 h, dose 1.7 mg/Kg, dose level High, time 5 day

SMILES: CO[C@@]12[C@H](COC(N)=O)C3=C(C(=O)C(C)=C(N)C3=O)N1C[C@@H]1N[C@@H]12 [MITOMYCIN]
- ABSOLUTE BASOPHIL [1]: 0 CELLS/uL
- ABSOLUTE EOSINOPHIL [1]: 31 CELLS/uL
- ABSOLUTE LYMPHOCYTE [1]: 7760.33 CELLS/uL
- ABSOLUTE MONOCYTE [1]: 22.67 CELLS/uL
- ABSOLUTE SEGMENTED NEUTROPHIL [1]: 286 CELLS/uL
- BASOPHIL [1]: 0%
- EOSINOPHIL [1]: 0.33%
- ERYTHROCYTE COUNT [1]: 6.12 x10E6/uL
- HEMATOCRIT [1]: 36.83%
- HEMOGLOBIN [1]: 14.33 G/DL
- LEUKOCYTE COUNT [1]: 8.1 x10E3/uL
- LYMPHOCYTE [1]: 96%
- MEAN CORPUSCULAR HEMOGLOBIN [1]: 23.4 pg
- MEAN CORPUSCULAR HEMOGLOBIN CONCENTRATION [1]: 38.9 G/DL
- MEAN CORPUSCULAR VOLUME [1]: 60.2 fL
- MONOCYTE [1]: 0.33%
- NEUTROPHIL [1]: 3.33%
- NUCLEATED RED BLOOD CELLS [1]: 0.67 /100WBC
- PLATELET COUNT [1]: 1302.33 x10E3/uL
- ALANINE AMINOTRANSFERASE [1]: 47.33 u/L
- ALBUMIN [1]: 4.03 G/DL
- ALKALINE PHOSPHATASE [1]: 285.67 u/L
- ASPARTATE AMINOTRANSFERASE [1]: 78 u/L
- BLOOD UREA NITROGEN [1]: 16.33 mg/dL
- CARBON DIOXIDE [1]: 29.33 mmol/L
- CHLORIDE [1]: 101.67 MEQ/L
- CHOLESTEROL [1]: 67.33 mg/dL
- CREATINE PHOSPHOKINASE [1]: 203 u/L
- CREATININE [1]: 0.34 mg/dL
- GLUCOSE [1]: 154 mg/dL
- LACTATE DEHYDROGENASE [1]: 120 u/L
- LIPASE [1]: 11 u/L
- PHOSPHORUS [1]: 10.5 mg/dL
- POTASSIUM [1]: 4.84 MEQ/L
- SODIUM [1]: 145.67 MEQ/L
- TOTAL BILIRUBIN [1]: 0.13 mg/dL
- TOTAL PROTEIN [1]: 5.83 G/DL
- URIC ACID [1]: 0.57 mg/dL
- ABSOLUTE BASOPHIL [2]: 0 CELLS/uL
- ABSOLUTE EOSINOPHIL [2]: 31.67 CELLS/uL
- ABSOLUTE LYMPHOCYTE [2]: 7497.33 CELLS/uL
- ABSOLUTE MONOCYTE [2]: 0 CELLS/uL
- ABSOLUTE SEGMENTED NEUTROPHIL [2]: 1104.33 CELLS/uL
- BASOPHIL [2]: 0%
- EOSINOPHIL [2]: 0.33%
- ERYTHROCYTE COUNT [2]: 5.47 x10E6/uL
- HEMATOCRIT [2]: 33.9%
- HEMOGLOBIN [2]: 13.43 G/DL
- LEUKOCYTE COUNT [2]: 8.63 x10E3/uL
- LYMPHOCYTE [2]: 86.67%
- MEAN CORPUSCULAR HEMOGLOBIN [2]: 24.6 pg
- MEAN CORPUSCULAR HEMOGLOBIN CONCENTRATION [2]: 39.63 G/DL
- MEAN CORPUSCULAR VOLUME [2]: 62.07 fL
- MONOCYTE [2]: 0%
- NEUTROPHIL [2]: 13%
- NUCLEATED RED BLOOD CELLS [2]: 0 /100WBC
- PLATELET COUNT [2]: 1626.67 x10E3/uL
- ALANINE AMINOTRANSFERASE [2]: 35.67 u/L
- ALBUMIN [2]: 4.03 G/DL
- ALKALINE PHOSPHATASE [2]: 211 u/L
- ASPARTATE AMINOTRANSFERASE [2]: 72.33 u/L
- BLOOD UREA NITROGEN [2]: 13.33 mg/dL
- CARBON DIOXIDE [2]: 29.33 mmol/L
- CHLORIDE [2]: 99.33 MEQ/L
- CHOLESTEROL [2]: 71.33 mg/dL
- CREATINE PHOSPHOKINASE [2]: 245.67 u/L
- CREATININE [2]: 0.15 mg/dL
- GLUCOSE [2]: 145.33 mg/dL
- LACTATE DEHYDROGENASE [2]: 173 u/L
- LIPASE [2]: 8 u/L
- PHOSPHORUS [2]: 11.53 mg/dL
- POTASSIUM [2]: 5.56 MEQ/L
- SODIUM [2]: 141.2 MEQ/L
- TOTAL BILIRUBIN [2]: 0.1 mg/dL
- TOTAL PROTEIN [2]: 5.6 G/DL
- URIC ACID [2]: 1.6 mg/dL
- ABSOLUTE BASOPHIL [3]: 0 CELLS/uL
- ABSOLUTE EOSINOPHIL [3]: 0 CELLS/uL
- ABSOLUTE LYMPHOCYTE [3]: 2370 CELLS/uL
- ABSOLUTE MONOCYTE [3]: 67 CELLS/uL
- ABSOLUTE SEGMENTED NEUTROPHIL [3]: 663 CELLS/uL
- BASOPHIL [3]: 0%
- EOSINOPHIL [3]: 0%
- ERYTHROCYTE COUNT [3]: 6.15 x10E6/uL
- HEMATOCRIT [3]: 38.97%
- HEMOGLOBIN [3]: 14.9 G/DL
- LEUKOCYTE COUNT [3]: 3.1 x10E3/uL
- LYMPHOCYTE [3]: 78.33%
- MEAN CORPUSCULAR HEMOGLOBIN [3]: 24.23 pg
- MEAN CORPUSCULAR HEMOGLOBIN CONCENTRATION [3]: 38.23 G/DL
- MEAN CORPUSCULAR VOLUME [3]: 63.33 fL
- MONOCYTE [3]: 2%
- NEUTROPHIL [3]: 19.67%
- NUCLEATED RED BLOOD CELLS [3]: 0 /100WBC
- PLATELET COUNT [3]: 1554 x10E3/uL
- ALANINE AMINOTRANSFERASE [3]: 21.33 u/L
- ALBUMIN [3]: 3.37 G/DL
- ALKALINE PHOSPHATASE [3]: 94.67 u/L
- ASPARTATE AMINOTRANSFERASE [3]: 57 u/L
- BLOOD UREA NITROGEN [3]: 15 mg/dL
- CARBON DIOXIDE [3]: 30.67 mmol/L
- CHLORIDE [3]: 100.33 MEQ/L
- CHOLESTEROL [3]: 84.67 mg/dL
- CREATINE PHOSPHOKINASE [3]: 265.67 u/L
- CREATININE [3]: 0.26 mg/dL
- GLUCOSE [3]: 154 mg/dL
- LACTATE DEHYDROGENASE [3]: 136.67 u/L
- LIPASE [3]: 10.67 u/L
- PHOSPHORUS [3]: 8.73 mg/dL
- POTASSIUM [3]: 4.86 MEQ/L
- SODIUM [3]: 144.3 MEQ/L
- TOTAL BILIRUBIN [3]: 0.1 mg/dL
- TOTAL PROTEIN [3]: 5.13 G/DL
- URIC ACID [3]: 0.57 mg/dL
